# Assay results reported in ChEMBL document CHEMBL1129010, “The preparation and evaluation of (+/-)-trans-1-Diazo-8-methoxy-4a-methyl-1,2,3,4,4a,9,10,10a-octahydro-phenanthren-2-one as an inhibitor of human type-1 steroid 5-reductase” (Bioorg Med Chem Lett, 1996).
# Assays:
# [1] = molecular target: T1, 3-oxo-5-alpha-steroid 4-dehydrogenase 2 (Homo sapiens, UniProt P31213); assay: Apparent inhibitory activity against human Steroid 5-alpha-reductase type 2 expressed in CHO cells; format: cell-based; conditions: read-out: Ki app
# T1 sequence (P31213 whole entry): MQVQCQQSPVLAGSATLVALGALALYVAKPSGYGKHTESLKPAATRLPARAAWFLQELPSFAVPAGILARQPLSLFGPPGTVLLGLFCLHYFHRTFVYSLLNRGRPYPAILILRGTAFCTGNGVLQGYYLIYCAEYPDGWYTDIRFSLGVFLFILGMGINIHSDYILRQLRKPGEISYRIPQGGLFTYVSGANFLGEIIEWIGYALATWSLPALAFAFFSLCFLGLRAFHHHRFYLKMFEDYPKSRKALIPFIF
# [2] = molecular target: T2, 3-oxo-5-alpha-steroid 4-dehydrogenase 1 (Homo sapiens, UniProt P18405); assay: Apparent inhibitory activity against human Steroid 5-alpha-reductase type I expressed in CHO cells; format: cell-based; conditions: read-out: Ki app
# T2 sequence (P18405 whole entry): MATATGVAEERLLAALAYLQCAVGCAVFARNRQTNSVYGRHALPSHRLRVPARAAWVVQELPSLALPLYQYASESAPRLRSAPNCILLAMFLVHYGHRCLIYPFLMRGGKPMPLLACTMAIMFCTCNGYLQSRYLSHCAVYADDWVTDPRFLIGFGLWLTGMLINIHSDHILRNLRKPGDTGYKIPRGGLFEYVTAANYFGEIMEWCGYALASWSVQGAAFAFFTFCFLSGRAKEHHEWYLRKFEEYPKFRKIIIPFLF
# [3] = molecular target: T2, 3-oxo-5-alpha-steroid 4-dehydrogenase 1; assay: Apparent inhibitory activity against human Steroid 5-alpha-reductase type I expressed in CHO cells; Active; format: cell-based
# [4] = molecular target: T3, 3-oxo-5-alpha-steroid 4-dehydrogenase 1 (Rattus norvegicus, UniProt P24008); assay: Apparent inhibitory activity against rat prostatic Steroid 5-alpha-reductase type I
# T3 sequence (P24008 whole entry): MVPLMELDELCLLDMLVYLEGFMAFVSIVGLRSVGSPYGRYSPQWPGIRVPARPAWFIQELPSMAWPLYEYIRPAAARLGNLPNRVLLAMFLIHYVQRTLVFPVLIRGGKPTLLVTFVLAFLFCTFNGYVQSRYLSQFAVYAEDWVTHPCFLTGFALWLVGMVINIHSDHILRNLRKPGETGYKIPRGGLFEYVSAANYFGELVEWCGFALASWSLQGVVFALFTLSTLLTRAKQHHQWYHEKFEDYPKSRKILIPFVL
# [5] = molecular target: T2, 3-oxo-5-alpha-steroid 4-dehydrogenase 1; assay: Selective apparent inhibitory activity against human Steroid 5-alpha-reductase type I expressed in CHO cells; Active; format: cell-based
smiles,measurement,setting,value
COc1cccc2c1CC[C@H]1[C-]([N+]#N)C(=O)CC[C@]21C,Ki,[1],2000 nM
same,Ki,[2],120 nM
CN1C(=O)CC[C@]2(C)c3ccc(Cl)cc3CC[C@@H]12,Ki,[3],Active
CC(CO)[C@H]1CC[C@H]2[C@@H]3CC[C@H]4C(=[N+]=[N-])C(=O)CC[C@]4(C)[C@H]3CC[C@]12C (stereo partly specified),Ki,[4],35 nM
C[C@]12CCC(C(=O)O)=CC1=CCc1cc(Cl)ccc12 (racemic),Ki,[5],Active
CN1C(=O)CC[C@@H]2c3ccc(Cl)cc3CC[C@H]21 [BEXLOSTERIDE],Ki,[3],Active
